Test results: US11780845B2 (Relay Therapeutics, Inc., priority 2019, dated 2023)

How the values were obtained:
FGFR2 = FGFR2 (Homo sapiens (Human), UniProt P21802); assay: FGFR2 Biochemical Caliper Assay
Description: Compounds of the present invention were also tested in a FGFR2 Biochemical Caliper Assay. Compounds were prepared in 10 mM DMSO solution and serially diluted into 11 concentrations by 3-fold dilution. […] 5 uL of ATP solution (100 uM) was added to start the reaction and the plate was incubated for 90 minutes, then 70 uL of stopping buffer (0.5M EDTA) was added to terminate the reaction. Each well was analyzed using EZ reader.

SNU16 cells = assay: SNU16 Cancer Cell Line Proliferation Assay; format: cell-based; conditions: SNU-16 cells
Procedure, shortened: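 Proliferation read-out: CellTiter Glo chemiluminescence after 96 h compound exposure. Test compounds, serially diluted 3-fold over 11 points from a 10 mM DMSO stock, were added to SNU16 cells plated 24 h earlier at 37 degrees.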

Sequence of FGFR2 (P21802 22-821): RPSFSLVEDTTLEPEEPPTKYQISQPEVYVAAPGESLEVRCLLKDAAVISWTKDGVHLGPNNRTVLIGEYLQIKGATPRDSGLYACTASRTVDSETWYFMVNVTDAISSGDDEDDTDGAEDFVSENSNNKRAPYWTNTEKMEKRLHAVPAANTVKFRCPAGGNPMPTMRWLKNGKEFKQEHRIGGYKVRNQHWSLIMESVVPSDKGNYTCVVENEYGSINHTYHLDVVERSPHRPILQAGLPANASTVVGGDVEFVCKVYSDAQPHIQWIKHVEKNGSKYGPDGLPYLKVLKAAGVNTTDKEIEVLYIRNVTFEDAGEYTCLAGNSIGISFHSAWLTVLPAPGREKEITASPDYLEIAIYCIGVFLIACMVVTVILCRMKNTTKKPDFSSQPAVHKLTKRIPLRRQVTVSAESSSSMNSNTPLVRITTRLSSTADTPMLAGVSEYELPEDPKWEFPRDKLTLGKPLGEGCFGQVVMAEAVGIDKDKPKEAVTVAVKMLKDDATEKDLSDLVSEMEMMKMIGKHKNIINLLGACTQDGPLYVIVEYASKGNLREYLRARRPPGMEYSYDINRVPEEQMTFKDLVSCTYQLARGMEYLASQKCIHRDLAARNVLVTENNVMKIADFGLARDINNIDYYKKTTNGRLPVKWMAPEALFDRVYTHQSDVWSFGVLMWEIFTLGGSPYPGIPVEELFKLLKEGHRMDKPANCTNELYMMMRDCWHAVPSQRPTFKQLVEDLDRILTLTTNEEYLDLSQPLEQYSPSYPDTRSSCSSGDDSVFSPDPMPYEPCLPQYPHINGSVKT

Structure (SMILES) | IC50 (FGFR2) [nM] | IC50 (SNU16 cells; Homo sapiens) [nM] | IC50 (SNU16 cells) [nM]
C=C(C)C(=O)Nc1ccc(-c2c(-c3ccc(Oc4cncc(C)n4)c(F)c3)c3c(N)ncnc3n2C)cc1 [Example 492] | < 100 | ≤ 100 | 
C=C(C)C(=O)Nc1ccc(-c2c(-c3ccc(Oc4nccc(C)n4)c(F)c3)c3c(N)ncnc3n2CC)cc1 [Example 494] | < 100 | ≤ 100 | 
C=C(C)C(=O)Nc1ccc(-c2c(-c3cc(C)c(Oc4nccc(C)n4)c(OC)c3)c3c(N)ncnc3n2C)cc1 [Example 497] | 100 to 250 | ≤ 100 | 
C=C(C)C(=O)Nc1ccc(-c2c(-c3ccc(Oc4nccc(CO)n4)c(F)c3)c3c(N)ncnc3n2C)cc1 [Example 498] | < 100 | ≤ 100 | 
C=C(C)C(=O)Nc1ccc(-c2c(-c3ccc(Oc4nccc(C)n4)c(F)c3)c3c(N)ncnc3n2C(C)C)cc1 [Example 499] | < 100 | ≤ 100 | 
C=C(C)C(=O)Nc1ccc(-c2c(-c3ccc(Oc4nccc(C)n4)c(F)c3)c3c(N)ncnc3n2C)c(COC)c1 [Example 500] | < 100 | ≤ 100 | 
C=C(C)C(=O)Nc1ccc(-c2c(-c3ccc(Oc4nccc(C)n4)c(F)c3)c3c(N)ncnc3n2C)c(OC)c1 [Example 502] | < 100 | ≤ 100 | 
C=C(C)C(=O)Nc1ccc(-c2c(-c3ccc(Oc4nccc(C#N)n4)c(F)c3)c3c(N)ncnc3n2C)cc1 [Example 503] | < 100 | ≤ 100 | 
C=C(C)C(=O)Nc1ccc(-c2c(-c3ccc(Oc4nccc(C)n4)c(Cl)c3)c3c(N)ncnc3n2C)cc1 [Example 505] | < 100 | ≤ 100 | 
C=C(C)C(=O)Nc1ccc(-c2c(-c3ccc(Oc4ccnc(C)n4)c(Cl)c3)c3c(N)ncnc3n2C)cc1 [Example 506] | 250 to 1000 | 250 to 1000 | 
C=C(C)C(=O)Nc1ccc(-c2c(-c3ccc(Oc4nccc(OC)n4)c(F)c3)c3c(N)ncnc3n2C)cc1 [Example 507] | < 100 | ≤ 100 | 
C=C(C)C(=O)Nc1ccc(-c2c(-c3ccc(Oc4nccc(C)n4)c(C#N)c3)c3c(N)ncnc3n2C)cc1 [Example 508] | < 100 | ≤ 100 | 
C=C(C)C(=O)Nc1ccc(-c2c(-c3ccc(Oc4nccc(COC)n4)c(F)c3)c3c(N)ncnc3n2C)cc1 [Example 511] | < 100 | ≤ 100 | 
Cn1c(-c2ccc(NC(=O)C3=CCC3)cc2)c(-c2ccc(C(=O)N3CCCC3)cc2)c2c(N)ncnc21 [Example 512] | < 100 | ≤ 100 | 
C=C(C)C(=O)Nc1ccc(-c2c(-c3ccc(Oc4nccc(C)n4)c(F)c3)c3c(N)ncnc3n2C)c(CO)c1 [Example 513] | < 100 | ≤ 100 | 
C=C(C)C(=O)Nc1ccc(-c2c(-c3ccc(Oc4nccc(C(F)F)n4)c(F)c3)c3c(N)ncnc3n2C)cc1 [Example 514] | < 100 | ≤ 100 | 
C=C(C)C(=O)Nc1ccc(-c2c(-c3ccc(Oc4ncc(F)c(C)n4)c(F)c3)c3c(N)ncnc3n2C)cc1 [Example 515] | < 100 | ≤ 100 | 
C=C(C)C(=O)Nc1ccc(-c2c(-c3ccc(C(=O)N4CCCC4)cc3)c3c(N)ncnc3n2C)c(C2CC2)c1 [Example 520] | 100 to 250 | 100 to 250 | 
C=C(C)C(=O)Nc1ccc(-c2c(-c3ccc(Oc4nccc(C)n4)cc3)c3c(N)ncnc3n2C)c(CC)c1 [Example 521] | < 100 |  | ≤ 100
C=C(CN(C)C)C(=O)Nc1ccc(-c2c(-c3ccc(C(=O)N4CCCC4)cc3)c3c(N)ncnc3n2C)cc1 [Example 522] | < 100 | ≤ 100 | 
C=C(C)C(=O)Nc1ccc(-c2c(-c3ccc(Oc4nccc(C)n4)c(F)c3)c3c(N)ncnc3n2C2CCCO2)cc1 (stereo not drawn) [Example 524] | < 100 | ≤ 100 | 

Structure (SMILES) | IC50 (FGFR2) [nM] | IC50 (SNU16 cells; Homo sapiens) [nM] | IC50 (SNU16 cells) [nM]
C=C(C)C(=O)Nc1ccc(-c2c(-c3ccc(Oc4nccc(C)n4)c(F)c3)c3c(N)ncnc3n2C)c(C(F)F)c1 [Example 526] | < 100 | ≤ 100 | 
C=C(C)C(=O)Nc1ccc(-c2c(-c3ccc(Oc4nccc(C)n4)c(F)c3)c3c(N)ncnc3n2C)c(C)c1 [Example 529] | < 100 | ≤ 100 | 
C=C(C)C(=O)Nc1ccc(-c2c(-c3ccc(Oc4nccc(Cl)n4)c(F)c3)c3c(N)ncnc3n2C)cc1 [Example 530] | < 100 | ≤ 100 | 
C=C(C)C(=O)Nc1ccc(-c2c(-c3ccc(Oc4cccc(C)n4)cc3)c3c(N)ncnc3n2C)nc1 [Example 533] | < 100 | ≤ 100 | 
C=C(C)C(=O)Nc1ccc(-c2c(-c3ccc(C(=O)N4CCCC4)cc3F)c3c(N)ncnc3n2C)cc1 [Example 537] | 100 to 250 | ≤ 100 | 
C=C(C)C(=O)Nc1ccc(-c2c(-c3ccc(Oc4cnn(C)c4)cc3)c3c(N)ncnc3n2C)cc1 [Example 541] | 1000 to 100000 | 250 to 1000 | 
C=C(C)C(=O)Nc1ccc(-c2c(-c3ccc(Oc4nccc(C)n4)cc3F)c3c(N)ncnc3n2C)c(F)c1 [Example 543] | < 100 | ≤ 100 | 
C=C(C)C(=O)Nc1ccc(-c2c(-c3cc(F)c(Oc4nccc(C)n4)cc3F)c3c(N)ncnc3n2C)cc1 [Example 546] | < 100 | ≤ 100 | 
C=C(C)C(=O)Nc1ccc(-c2c(-c3ccc(Oc4nccc(C)n4)c(F)c3F)c3c(N)ncnc3n2C)cc1 [Example 552] | < 100 | ≤ 100 | 
C=Cc1ncc(-c2c(-c3ccc(C(=O)N4CCCC4)cc3)c3c(N)ncnc3n2C)cn1 [Example 554] | 250 to 1000 | 250 to 1000 | 
Cn1c(-c2ccc(NC(=O)CCl)cc2)c(-c2ccc(C(=O)N3CCCC3)cc2)c2c(N)ncnc21 [Example 558] | < 100 | ≤ 100 | 
C=C(C)C(=O)Nc1ccc(-c2c(-c3ccc(C(=O)N4CC5CC4C5)cc3F)c3c(N)ncnc3n2C)cc1 [Example 562] | 100 to 250 | ≤ 100 | 
C=C(C)C(=O)Nc1ccc(-c2c(-c3ccc(C(=O)N4CCCC4)cc3C#N)c3c(N)ncnc3n2C)cc1 [Example 563] | 1000 to 100000 | 250 to 1000 | 
C=C(C)C(=O)Nc1ccc(-c2c(-c3ccc(Oc4nccc(C)n4)cc3C#N)c3c(N)ncnc3n2C)cc1 [Example 564] | 1000 to 100000 | 250 to 1000 | 
C=C(C)C(=O)Nc1ccc(-c2c(-c3ccc(C(=O)NC4CC(F)C4)c(OC)c3)c3c(N)ncnc3n2C)cc1 (stereo not drawn) [Example 566] | < 100 | ≤ 100 | 
C=C(C)C(=O)Nc1ccc(-c2c(-c3ccc(C(=O)NC4CC(F)C4)c(F)c3)c3c(N)ncnc3n2C)cc1 (stereo not drawn) [Example 567] | 100 to 250 | ≤ 100 | 
C=C(C)C(=O)Nc1ccc(-c2c(-c3ccc(C(=O)NCC(F)(F)F)c(OC)c3)c3c(N)ncnc3n2C)cc1 [Example 568] | < 100 | ≤ 100 | 
C=C(C)C(=O)Nc1ccc(-c2c(-c3ccc(C(=O)N4CCCC4)cc3OC)c3c(N)ncnc3n2C)cc1 [Example 569] | 100 to 250 | 100 to 250 | 
C=C(C)C(=O)Nc1ccc(-c2c(-c3c(F)cc(Oc4nccc(C)n4)cc3F)c3c(N)ncnc3n2C)cc1 [Example 570] | < 100 | ≤ 100 | 
C=C(C)C(=O)Nc1ccc(-c2c(-c3ccc(Oc4nccc(C)n4)cc3C(F)F)c3c(N)ncnc3n2C)cc1 [Example 571] | 1000 to 100000 | 250 to 1000 | 
C=C(C)C(=O)Nc1ccc(-c2c(-c3ncc(Oc4nccc(C)n4)cc3F)c3c(N)ncnc3n2C)cc1 [Example 572] | < 100 | ≤ 100 | 
